Data published in patent US20200147028A1, “TREATMENT OF RESPIRATORY INFECTION WITH A TLR2 AGONIST” (Ena Therapeutics Pty Ltd, priority 2017, published 2020).
“Also recorded” adds a separate entry of the source. Read-outs that look alike come from different tables or passages of the source. No end group written: not given here.

Experiments:
[1] = tested on: TNFα; assay: Mouse RV1B infection model: TNFα in BAL by ELISA
Protocol: (§1) Remaining lung lobes we snap frozen in liquid nitrogen, homogenised in 600 μl PBS containing protease inhibitors (Roche) by TissueLyser II run twice at 30 Hz for 4 minutes. Cell debris was pelleted by centrifugation, samples were diluted 1:2 with PBS and stored at −80° C. BAL fluid was then analysed for production of KC/IL-8 (CXCL1) and TNF-α by Duoset ELISA (R&D Systems) as per manufacturer's instructions.

[2] = tested on: CXCL1; assay: Mouse RV1B infection model: CXCL1 in BAL by ELISA
Protocol: as §1

[3] = tested on: BAL inflammatory cells; assay: Mouse RV1B infection model: BAL cell analysis
Protocol: Following sacrifice, mice were tracheally cannulated and 1 ml of Hanks buffered saline solution (Hyclone™, GE Life Sciences) flushed through the airways, 3-5 times. BAL cells were pelleted by centrifugation and supernatant was collected and stored at −80° C. for ELISAs. The pelleted cells were red blood cells lysed and the remaining cells were counted on a heamocytometer by trypan blue exclusion. Cell suspensions were then cytocentrifuged onto slides and fixed and stained with Diff Quick (POCD) solutions as per manufacturer's recommendations. A minimum of 200 total cells were counted per slide and numbers of neutrophils, lymphocytes, and macrophages were determined.

[4] = parameters: species or system BALB/c mice; conditions: mouse, in vivo
From the text: Each group contained 5 mice.

[5] = tested on: Rhinovirus serotype 1B (RV1B); assay: Mouse RV1B infection model: lung viral RNA by qPCR; conditions: for reduction of RV infection (lung RV copy number): Study 1E: 10 pmol day −7; for RV copy number in lung: Study 1E: every dose 1-10 pmol day −7; for lung viral load: day +1
[6] = tested on: TNF-α; assay: Mouse RV1B infection with fluticasone propionate: TNF-α in BAL by ELISA; type: in vivo, BALB/c mice; conditions: FP treatment
[7] = type: in vivo, BALB/c mice; conditions: 2 pmol INNA-006 day −7 or day −7 & −1; FP 1 hour before RV1B
From the text: Each group contained 8 mice.

[8] = tested on: Rhinovirus serotype 1B (RV1B); assay: Mouse RV1B infection with fluticasone propionate: lung viral RNA by qPCR; conditions: FP 1 hour before RV1B in Saline control mice
[9] = target: TLR-2 (Homo sapiens, UniProt O60603); assay: NF-κB luciferase reporter in HEK293T cells transfected with human TLR2; type: cell-based; parameters: expressed in transfected cells; host or cells: HEK293T; conditions: dose range 12.2 pM to 3.125 pM, FIG. 20
Chain of TLR-2 (O60603 21-784): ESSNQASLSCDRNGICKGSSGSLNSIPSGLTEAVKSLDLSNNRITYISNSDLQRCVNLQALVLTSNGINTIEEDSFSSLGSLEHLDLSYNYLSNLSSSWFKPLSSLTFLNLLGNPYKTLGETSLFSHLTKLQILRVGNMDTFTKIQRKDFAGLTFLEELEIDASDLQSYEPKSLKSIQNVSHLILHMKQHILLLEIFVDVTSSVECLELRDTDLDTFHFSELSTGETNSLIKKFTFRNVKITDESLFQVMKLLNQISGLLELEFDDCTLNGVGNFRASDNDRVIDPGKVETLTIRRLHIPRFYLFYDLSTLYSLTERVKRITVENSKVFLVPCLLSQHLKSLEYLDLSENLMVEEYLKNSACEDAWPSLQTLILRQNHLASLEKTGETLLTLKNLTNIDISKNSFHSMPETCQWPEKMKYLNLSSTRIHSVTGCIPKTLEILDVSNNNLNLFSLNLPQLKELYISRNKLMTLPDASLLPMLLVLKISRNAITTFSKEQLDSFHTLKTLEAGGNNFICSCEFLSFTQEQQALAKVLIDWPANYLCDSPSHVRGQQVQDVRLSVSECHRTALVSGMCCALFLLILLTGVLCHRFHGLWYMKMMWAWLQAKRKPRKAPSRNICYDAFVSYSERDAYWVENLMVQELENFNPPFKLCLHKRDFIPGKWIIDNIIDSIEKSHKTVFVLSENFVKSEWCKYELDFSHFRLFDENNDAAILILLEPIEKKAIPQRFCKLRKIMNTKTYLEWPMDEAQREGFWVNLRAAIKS
Chain of TLR-2 (Q15399 25-786 partner): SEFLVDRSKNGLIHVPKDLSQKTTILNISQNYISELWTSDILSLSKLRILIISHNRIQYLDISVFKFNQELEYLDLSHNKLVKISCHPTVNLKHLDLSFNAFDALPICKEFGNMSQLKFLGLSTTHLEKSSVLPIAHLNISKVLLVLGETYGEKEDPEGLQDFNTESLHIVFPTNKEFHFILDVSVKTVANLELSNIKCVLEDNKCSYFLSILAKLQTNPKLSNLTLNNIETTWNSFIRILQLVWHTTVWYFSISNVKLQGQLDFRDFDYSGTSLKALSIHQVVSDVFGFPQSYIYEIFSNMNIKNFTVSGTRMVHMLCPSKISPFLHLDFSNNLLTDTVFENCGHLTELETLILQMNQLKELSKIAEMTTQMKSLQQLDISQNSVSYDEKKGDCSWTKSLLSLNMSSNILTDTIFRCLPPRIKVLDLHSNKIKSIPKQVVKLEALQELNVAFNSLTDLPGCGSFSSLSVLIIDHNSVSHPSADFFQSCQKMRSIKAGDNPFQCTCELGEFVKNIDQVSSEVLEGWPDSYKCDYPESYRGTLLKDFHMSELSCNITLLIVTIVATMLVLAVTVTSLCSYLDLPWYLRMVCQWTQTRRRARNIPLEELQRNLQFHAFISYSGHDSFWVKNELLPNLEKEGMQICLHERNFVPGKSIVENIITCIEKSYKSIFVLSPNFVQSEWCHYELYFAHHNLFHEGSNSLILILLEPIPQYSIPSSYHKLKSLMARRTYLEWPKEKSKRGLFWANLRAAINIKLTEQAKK
Protocol: Comparison of the abilities of various compounds to stimulate luciferase activity in an NF-κB cell-based reporter system was determined. Compounds tested include INNA-006 (or compound (1)); INNA-013 (or compound (4)); INNA-014 (or compound (3)); INNA-015 (or compound (2)); INNA-010; INNA-011 (or compound (5)); INNA-012 (or compound (6)); and INNA-009. HEK293T cells, transiently co-transfected with a human TLR2 plasmid and a luciferase-NF-κB plasmid reporter system, were exposed to various dilutions of each compound. Successful receptor binding and subsequent signal transduction events were determined by measuring the luminescence due to luciferase activity (results shown in FIG. 19—left to right columns for each concentration are in the following order INNA-006 (or compound (1)); INNA-013 (or compound (4)); INNA-014 (or compound (3)); INNA-015 (or compound (2)); INNA-010; INNA-011 (or compound (5)); INNA-012 (or compound (6)); and INNA-009.
Comparison of the in vitro TLR2 agonistic activity of Pam3Cys-Ser-PEG3000 and INNA-006: HEK293T cells, transiently co-transfected with a human TLR2 plasmid and a luciferase-NF-κB plasmid reporter system, were exposed to various dilutions of INNA-006 or Pam3Cys-Ser-PEG3000.
Successful receptor binding and subsequent signal transduction events were determined by measuring the luminescence due to luciferase activity (FIG. 20).

[10] = Study 1G: lowest doses (2 pmole and 1 pmole) day +1, listed as Peg-SS-Pam2Cys

Compound: Pam2Cys-SS-PEG [INNA-003]
- TNF-α in BAL ([1]; Study 1E: day −7, listed as Peg-SS-Pam2Cys): not increased by any of the compounds; also recorded: lack of induction of TNFα
- TNF-α in BAL ([1]; Study 1F: 2 pmol, all groups): did not induce TNF-α in any of the groups
- TNF-α in BAL ([1]; Study 1G: 10-1 pmol day +1): dose dependent upon drug treatment
- TNF-α in BAL [1, 10]: not increased by the lowest doses; also recorded: no significant increase in KC or TNFα
- CXCL1 in BAL ([2]; Study 1E: every dose (1-10 pmol) day −7): effectively reduced CXCL1 levels
- CXCL1 in BAL ([2]; Study 1F: 2 pmol day −1, RV1B, listed as Peg-SS-Pam2Cys): CXCL1 production was only increased; also recorded: significantly increased in mice treated one day prior to infection
- CXCL1 / lung inflammation after day −1 dose with prior day −7 dose ([2]; Study 1F: 2 pmol day −7 and day −1, listed as Peg-SS-Pam2Cys): protected from lung inflammation; also recorded: completely abolished
- CXCL1 in BAL ([2]; Study 1G: 10-1 pmol day +1): dose dependent upon drug treatment
- CXCL1 (KC) in BAL [2, 10]: not increased by the lowest doses; also recorded: no significant increase in KC or TNFα
- RV-induced BAL neutrophilic inflammation ([3]; Study 1E: day −7, day 2 p.i.): significantly reduced neutrophilic inflammation
- inflammatory potency, Peg-SS-Pam2Cys versus Peg-S-Pam2Cys ([3]; Study 1F): Peg-SS-Pam2Cys more inflammatory
- BAL neutrophils ([3]; Study 1F: 2 pmol, 1 day prior to RV or mock infection): only significantly increased in mice with Peg-SS-Pam2Cys treatment 1 day prior to RV or mock infection
- BAL lymphocytes ([3]; Study 1F: 2 pmol, day −7, day −1 or both): induced by Peg-SS-Pam2Cys at all treatment times (except day −7 treatment with RV1B infection)
- total BAL leukocytes in RV1B infected mice ([3]; Study 1F: 2 pmol, vs Saline RV): did not induce significantly higher leukocyte recruitment
- total BAL leukocytes in mock infected mice ([3]; Study 1F: 2 pmol, vs Saline mock): Total leukocytes were increased
- neutrophilic response in uninfected mice ([3]; Study 1F: three days after dosing (d-1 groups)): there was a neutrophilic response to Peg-SS-Pam2Cys
- BAL lymphocytes ([3]; Study 1G: day +1 treatment): no changes to lymphocyte numbers
- BAL macrophages ([3]; Study 1G: day +1 treatment): significantly reducing macrophage numbers
- total BAL leucocyte numbers ([3]; Study 1G: day +1 treatment): no significant differences
- BAL neutrophils ([3]; Study 1G: day +1 treatment, listed as Peg-SS-Pam2Cys): drastically increases neutrophil numbers in BAL; also recorded: increasing neutrophil recruitment
- weight loss [4]: weight loss at the higher doses
- weight loss after second dose [4]: no weight loss observed
- reduction of RV infection (lung RV copy number) [5]: 84.82%
- anti-viral efficacy relative to Pam2CysSK4 ([5]; Study 1E: 10 pmol dose day −7, listed as Peg-SS-Pam2Cys): better anti-viral efficacy compared to Pam2CysSK4
- RV copy number in lung ([5]; day 2 p.i.): significant reduction in RV infection
- reduced viral RNA ([5]; Study 1F: single treatment at day −7): 70%
- reduction in viral RNA ([5]; Study 1F: treatment at both days −7 and −1): approx. 90%
- RV copy numbers in lung ([5]; Study 1G: 10, 5, 2, 1 pmol 1 day post-infection, day 2 p.i.): reduces RV1B copy numbers in the lung
- lung viral load ([5]; Study 1G: doses 5 pmole per mouse and lower): significant reduction in lung viral load
- lung viral load ([5]; Study 1G: highest dose 10 pmole per mouse): less effective

Compound: CCC(=O)O[C@]1(C(=O)SCF)[C@H](C)C[C@H]2[C@@H]3C[C@H](F)C4=CC(=O)C=C[C@]4(C)[C@@]3(F)[C@@H](O)C[C@@]21C [FP, fluticasone propionate, reference compound]
- TNF-α production stimulated by INNA-006 [6]: reduced TNF-α production stimulated by INNA-006
- weight loss [7]: no significant weight loss
- viral lung load [8]: Viral lung load was increased; also recorded: increased viral lung load in Saline control mice only

Compound: Pam3Cys-Ser-PEG3000
- ability to signal NF-κB (luciferase), versus INNA-006 [9]: inferior to INNA-006

Compound: Pam2Cys-Ser-Lys-Lys-Lys-Lys (C(dipalmitoyl‑S‑glyceryl)SKKKK) [INNA-005, reference compound]
- TNF-α in BAL ([1]; Study 1E: day −7): not increased by any of the compounds
- CXCL1 in BAL ([2]; Study 1E: 10 pmol and 5 pmol dose day −7): effectively reduced CXCL1 levels
- reduction in lung viral load ([5]; Study 1E, day −7 (discussion)): 50%
- reduction of RV infection (lung RV copy number) [5]: 58%
- RV copy number in lung ([5]; day 2 p.i.): significant reduction in RV infection
